Literature values as cited in patent publication US8476227B2, “Methods of activating a melanocortin-4 receptor pathway in obese subjects” (Ethicon Endo-Surgery, Inc., priority 2010, dated 2013).

Conditions: rat models; background statement, no dose or regimen given

NDP-MSH
body weight gain: attenuate
food intake: attenuate
